# Measured values as given in the supplement of paper PMC10307832.
# Tests used:
# Assay in all cases: relative viability (nuclei count vs DMSO), 5 days (fraction); higher = more cells survive
# KN-93 + Decitabine = compound: CN(C/C=C/C1=CC=C(C=C1)Cl)CC2=CC=CC=C2N(CCO)S(=O)(=O)C3=CC=C(C=C3)OC [KN-93] + Nc1ncn([C@H]2C[C@H](O)[C@@H](CO)O2)c(=O)n1 [Decitabine] (partner 2 µM)
# Summary of the method: (§1)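 Values are medians from duplicate plates. Each reflects relative viability, defined as the nuclei count of treated wells over that of vehicle wells. Lung cancer cell lines in 1536-well plates were pin-tool dosed one day after seeding with one drug alone or with a fixed anchor-drug dose plus five library-drug doses (not always all listed) in √10 steps, then fixed, stained and imaged at 4× after 5 days.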
# KN-93 + Bortezomib = compound: CN(C/C=C/C1=CC=C(C=C1)Cl)CC2=CC=CC=C2N(CCO)S(=O)(=O)C3=CC=C(C=C3)OC [KN-93] + CC(C)C[C@H](NC(=O)[C@H](Cc1ccccc1)NC(=O)c1cnccn1)B(O)O [Bortezomib] (partner 0.002 µM)
# Summary of the method: as §1
# KN-93 + Linsitinib = compound: CN(C/C=C/C1=CC=C(C=C1)Cl)CC2=CC=CC=C2N(CCO)S(=O)(=O)C3=CC=C(C=C3)OC [KN-93] + C[C@]1(O)C[C@@H](c2nc(-c3ccc4ccc(-c5ccccc5)nc4c3)c3c(N)nccn32)C1 [Linsitinib] (partner 1 µM)
# Summary of the method: as §1
# KN-93 + Phenformin = compound: CN(C/C=C/C1=CC=C(C=C1)Cl)CC2=CC=CC=C2N(CCO)S(=O)(=O)C3=CC=C(C=C3)OC [KN-93] + N=C(N)NC(=N)NCCc1ccccc1 [Phenformin] (partner 250 µM)
# Summary of the method: as §1
# KN-93 + AZD7762 = compound: CN(C/C=C/C1=CC=C(C=C1)Cl)CC2=CC=CC=C2N(CCO)S(=O)(=O)C3=CC=C(C=C3)OC [KN-93] + NC(=O)Nc1cc(-c2cccc(F)c2)sc1C(=O)N[C@H]1CCCNC1 [AZD7762] (partner 0.2 µM)
# Summary of the method: as §1
Cell Line,relative viability (KN-93 + Decitabine; first compound 0.08 µM),relative viability (KN-93 + Decitabine; first compound 0.253 µM),relative viability (KN-93 + Decitabine; first compound 2.53 µM),relative viability (KN-93 + Decitabine; first compound 8 µM),relative viability (KN-93 + Bortezomib; first compound 0.08 µM),relative viability (KN-93 + Bortezomib; first compound 0.253 µM),relative viability (KN-93 + Bortezomib; first compound 2.53 µM),relative viability (KN-93 + Bortezomib; first compound 8 µM),relative viability (KN-93 + Linsitinib; first compound 0.08 µM),relative viability (KN-93 + Linsitinib; first compound 0.253 µM),relative viability (KN-93 + Linsitinib; first compound 2.53 µM),relative viability (KN-93 + Linsitinib; first compound 8 µM),relative viability (KN-93 + Phenformin; first compound 0.08 µM),relative viability (KN-93 + Phenformin; first compound 0.253 µM),relative viability (KN-93 + Phenformin; first compound 2.53 µM),relative viability (KN-93 + Phenformin; first compound 8 µM),relative viability (KN-93 + AZD7762; first compound 0.08 µM),relative viability (KN-93 + AZD7762; first compound 0.253 µM),relative viability (KN-93 + AZD7762; first compound 2.53 µM),relative viability (KN-93 + AZD7762; first compound 8 µM)
HCC-15,0.546,0.62,0.707,0.309,0.838,1.27,1.17,0.634,0.85,1,0.802,0.728,0.401,0.522,0.685,0.42,1.18,1.24,1.38,1
HCC-44,1.05,0.929,1.03,0.915,0.834,0.801,1.03,0.751,0.616,0.613,0.667,0.462,0.314,0.202,0.331,0.16,1.02,0.904,1.04,0.944
HCC-78,0.724,0.676,0.709,0.747,0.462,–,0.37,0.531,0.489,0.507,0.549,0.374,0.769,0.664,0.636,0.652,0.623,0.506,0.622,0.653
HCC-366,0.333,0.333,0.307,0.299,–,1.48,1.57,0.955,–,0.706,0.844,0.334,0.595,0.661,0.639,0.277,0.269,0.221,0.286,0.0943
HCC-827,0.356,0.335,0.332,0.304,1.01,1.11,0.972,0.872,1.02,0.921,0.939,0.875,0.417,0.385,0.479,0.407,0.195,0.159,0.191,0.186
HOP-62,0.225,0.27,0.241,0.239,0.442,1.28,0.958,0.711,0.938,1.15,1.12,0.982,0.525,0.835,0.849,0.741,0.476,0.499,0.797,0.458
LC-2-ad,0.775,0.772,0.911,0.702,0.975,0.998,1.22,0.446,0.824,0.906,0.856,0.566,0.651,0.678,0.645,0.553,0.775,0.958,0.953,0.785
LCLC-97TM1,0.288,0.208,0.279,0.211,0.636,0.576,0.906,0.466,0.162,–,0.2,0.142,0.418,0.494,0.488,0.407,0.289,0.279,0.198,0.224
LCLC-103H,0.657,0.69,0.673,0.518,0.968,1.07,1.16,0.949,1.17,1.05,0.963,0.877,0.319,0.341,0.359,0.31,0.732,0.808,0.822,0.626
LOU-NH91,0.833,0.769,0.795,0.786,0.534,0.456,0.48,0.392,0.926,0.856,0.931,0.791,0.667,0.614,0.8,0.628,0.731,0.659,0.802,0.623
LU99A,0.777,0.893,0.859,0.711,1.08,1.28,1.33,0.93,0.535,0.541,0.497,0.461,0.91,0.88,0.774,0.676,0.31,0.323,0.38,0.336
LXF-289,0.391,0.413,0.416,0.388,0.853,1.12,1.12,0.833,0.963,1,0.964,0.652,0.515,0.568,0.597,0.504,0.813,1.15,1.18,0.978
NCI-H23,0.849,0.306,0.296,0.288,0.878,1.07,1.14,0.893,0.522,0.617,0.659,0.53,0.705,0.889,0.88,0.609,0.286,0.214,0.235,0.106
NCI-H322M,0.733,0.725,0.69,0.699,1.36,1.21,1.29,1.14,0.988,0.935,0.958,0.803,0.753,0.746,0.838,0.604,0.549,0.53,0.555,0.51
NCI-H441,–,0.203,0.261,0.197,–,0.672,0.365,0.22,0.48,0.818,0.799,0.245,0.828,1.06,0.921,0.779,–,1.36,1.19,1.06
